Measured values reported in PubChem BioAssay AID1963971 (Molecular Pharmacology Branch, DTP, NCI, 2024).

System: 953936-095-R-J2-PDC spheroids with HUVEC/MSC, viability
Test: Anticancer human tumor 953936-095-R-J2-PDC patient-derived cervical squamous cell carcinoma cell line growth inhibition [PI3K]
Settings: for IC50: curve of first compound; for viability, T/C: stronger effect = lower value
Source text: Combinatorial screen of targeted agents with the PI3K inhibitors inavolisib, alpelisib, duvelisib, and copanlisib in multi-cell type tumor spheroids
A high-throughput screen of multi-cell type tumor spheroids was designed to identify active combinations of targeted small molecules and PI3K pathway inhibitors. Complex spheroids include a stromal component modeled by human endothelial cells (HUVEC) and fibroblasts modeled by human mesenchymal stem cells (MSCs). The concentration ranges selected for each drug and investigational agent were based upon clinically achievable concentrations if the clinical Cmax of the agent was known.
Compounds. The drugs and investigational agents: inavolisib (NSC800729), alpelisib (NSC765974), duvelisib (NSC772469), copanlisib (NSC816437), ipatasertib (NSC767898), afuresertib (NSC778305), talazoparib (NSC767125), sapanisertib (NSC764658), selumetinib (NSC741078), tovorafenib (DAY101, NSC766906), vemurafenib (NSC761431), ravoxertinib (NSC781343), sotorasib (NSC818433), MRTX1133 (NSC 836407), abemaciclib (NSC 768073), palbociclib (NSC758247), venetoclax (NSC 766270), SY5609 (NSC837396), enzalutamide (NSC755605), and darolutamide (NSC825331), were obtained from the National Cancer Institute (NCI) Developmental Therapeutics Program Chemical Repository. The FDA-approved anticancer drug set is available from the NCI Developmental Therapeutics Program. […] The stock solutions were prepared in dimethyl sulfoxide (DMSO, Sigma-Aldrich, St. Louis, MO, cat. D2650) at 800-fold the tested concentration and stored at -70 degrees C prior to their use. All drugs and investigational agents were tested over a range starting from a high concentration at or near the clinical Cmax and decreasing in half-log increments. If the clinical Cmax for an agent had not been determined, the highest concentration tested was 10 microM.
Cell Culture. All cells were maintained in an incubator at 37 degrees C and 5% CO2 with 95% humidity. The PDC lines were cultured according to standard operating procedures established by the NCI PDMR (https://pdmr.cancer.gov/sops/default.htm). All PDCs were thawed and cultured in Matrigel-coated flasks prepared with a working solution of 1X Ham's F-12 nutrient mix, without supplementation (Invitrogen, Waltham, MA, cat. 11765054), 100 U/mL penicillin-streptomycin (Invitrogen, cat. 15140122), and 2.5% Matrigel (Corning Inc., Corning, NY, cat. 354248) for the first three passages. The 354836-022-R-J1-PDC, 475296-252-R-J1-PDC, and 997726-040-R-J2-PDC lines were cultured in 6A media, which includes advanced DMEM/F-12 (Thermo Fisher Scientific, cat. 12634028), 10 mM HEPES (Thermo Fisher Scientific, cat. 15630080), 1X GlutaMAX supplement (Thermo Fisher Scientific, cat. 35050061), 0.1 mg/mL primocin (InvivoGen, San Diego, CA, cat. ant-pm-2), 10% defined fetal bovine serum, heat inactivated (HyClone Laboratories Inc., Logan, UT, cat. SH30070.03HI), 50% L-WRN conditioned media (ATCC, cat. CRL-3276), 1.25 mM N-Acetyl-L-cysteine (Sigma-Aldrich, cat. A9165), 10 mM nicotinamide (Sigma-Aldrich, cat. N0636), 1X B-27 supplement (Thermo Fisher Scientific, cat. 17504044), 1X N-2 supplement (Thermo Fisher Scientific, cat. 17502048), and 10 microM Y-27632 dihydrochloride (Tocris Bioscience, Bristol, United Kingdom, cat. 1254). The 624824-186-R-J2-PDC line was cultured in 6C/Colon 1B media, which includes all 6A media components plus 50 ng/mL human EGF recombinant protein (Thermo Fisher Scientific, cat. PHG0311). […]

[1] = second compound 0.00316 µM, first compound 0.0316 µM
[2] = second compound 0.00316 µM, first compound 0.1 µM
[3] = second compound 0.00316 µM, first compound 0.316 µM
[4] = second compound 0.00316 µM, first compound 1 µM
[5] = second compound 0.01 µM, first compound 0.0316 µM
[6] = second compound 0.01 µM, first compound 0.1 µM
[7] = second compound 0.01 µM, first compound 0.316 µM
[8] = second compound 0.01 µM, first compound 1 µM
[9] = second compound 0.0316 µM, first compound 0.0316 µM
[10] = second compound 0.0316 µM, first compound 0.1 µM
[11] = second compound 0.0316 µM, first compound 0.316 µM
[12] = second compound 0.0316 µM, first compound 1 µM
[13] = second compound 0.1 µM, first compound 0.0316 µM
[14] = second compound 0.1 µM, first compound 0.1 µM
[15] = second compound 0.1 µM, first compound 0.316 µM
[16] = second compound 0.1 µM, first compound 1 µM
[17] = second compound 0.316 µM, first compound 0.0316 µM
[18] = second compound 0.316 µM, first compound 0.1 µM
[19] = second compound 0.316 µM, first compound 0.316 µM
[20] = second compound 0.316 µM, first compound 1 µM
[21] = second compound 1 µM, first compound 0.0316 µM
[22] = second compound 1 µM, first compound 0.1 µM
[23] = second compound 1 µM, first compound 0.316 µM
[24] = second compound 1 µM, first compound 1 µM
[25] = second compound 0.00316 µM, first compound 0.00316 µM
[26] = second compound 0.00316 µM, first compound 0.01 µM
[27] = second compound 0.01 µM, first compound 0.00316 µM
[28] = second compound 0.01 µM, first compound 0.01 µM
[29] = second compound 0.0316 µM, first compound 0.00316 µM
[30] = second compound 0.0316 µM, first compound 0.01 µM
[31] = second compound 0.1 µM, first compound 0.00316 µM
[32] = second compound 0.1 µM, first compound 0.01 µM
[33] = second compound 0.316 µM, first compound 0.00316 µM
[34] = second compound 0.316 µM, first compound 0.01 µM
[35] = second compound 1 µM, first compound 0.00316 µM
[36] = second compound 1 µM, first compound 0.01 µM
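Further: spheroids exposed to compounds for seven days before read-out.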

CC(C)NCC(C(=O)N1CCN(c2ncnc3c2C(C)CC3O)CC1)c1ccc(Cl)cc1 (stereo unspecified) + CC(Nc1ccc2c(c1)OCCn1cc(N3C(=O)OCC3C(F)F)nc1-2)C(N)=O
IC50 (second compound 0.00316 µM): 890 nM
IC50 (second compound 0.01 µM): 865 nM
IC50 (second compound 0.0316 µM): 640 nM
IC50 (second compound 0.1 µM): 176 nM
IC50 (second compound 0.316 µM): < 31.6 nM
IC50 (second compound 1 µM): < 31.6 nM
viability, T/C [1]: 89.5%
viability, T/C [2]: 88.2%
viability, T/C [3]: 73.9%
viability, T/C [4]: 48%
viability, T/C (second compound 0.00316 µM, first compound 3.16 µM): 22.5%
viability, T/C (second compound 0.00316 µM, first compound 10 µM): 15.1%
viability, T/C [5]: 87%
viability, T/C [6]: 86.1%
viability, T/C [7]: 71.3%
viability, T/C [8]: 48.3%
viability, T/C (second compound 0.01 µM, first compound 3.16 µM): 20.9%
viability, T/C (second compound 0.01 µM, first compound 10 µM): 14.1%
viability, T/C [9]: 79.1%
viability, T/C [10]: 76%
viability, T/C [11]: 63.5%
viability, T/C [12]: 42%
viability, T/C (second compound 0.0316 µM, first compound 3.16 µM): 18.4%
viability, T/C (second compound 0.0316 µM, first compound 10 µM): 11.4%
viability, T/C [13]: 57.2%
viability, T/C [14]: 55%
viability, T/C [15]: 45.5%
viability, T/C [16]: 31.2%
viability, T/C (second compound 0.1 µM, first compound 3.16 µM): 18.6%
viability, T/C (second compound 0.1 µM, first compound 10 µM): 9.8%
viability, T/C [17]: 35.8%
viability, T/C [18]: 33.9%
viability, T/C [19]: 30.6%
viability, T/C [20]: 23.6%
viability, T/C (second compound 0.316 µM, first compound 3.16 µM): 13%
viability, T/C (second compound 0.316 µM, first compound 10 µM): 9.25%
viability, T/C [21]: 23%
viability, T/C [22]: 22.3%
viability, T/C [23]: 19.3%
viability, T/C [24]: 15.4%
viability, T/C (second compound 1 µM, first compound 3.16 µM): 14%
viability, T/C (second compound 1 µM, first compound 10 µM): 7.62%

CCN1CCN(Cc2ccc(Nc3ncc(F)c(-c4cc(F)c5nc(C)n(C(C)C)c5c4)n3)nc2)CC1 + CC(Nc1ccc2c(c1)OCCn1cc(N3C(=O)OCC3C(F)F)nc1-2)C(N)=O
IC50 (second compound 0.00316 µM): > 1000 nM
IC50 (second compound 0.01 µM): > 1000 nM
IC50 (second compound 0.0316 µM): > 1000 nM
IC50 (second compound 0.1 µM): 64.4 nM
IC50 (second compound 0.316 µM): < 3.16 nM
IC50 (second compound 1 µM): < 3.16 nM
viability, T/C [25]: 102%
viability, T/C [26]: 98.5%
viability, T/C [1]: 94.6%
viability, T/C [2]: 96.6%
viability, T/C [3]: 89.8%
viability, T/C [4]: 80.7%
viability, T/C [27]: 93%
viability, T/C [28]: 104%
viability, T/C [5]: 94.2%
viability, T/C [6]: 83.3%
viability, T/C [7]: 80%
viability, T/C [8]: 79.3%
viability, T/C [29]: 73%
viability, T/C [30]: 79.7%
viability, T/C [9]: 72.5%
viability, T/C [10]: 75.8%
viability, T/C [11]: 63.8%
viability, T/C [12]: 72.2%
viability, T/C [31]: 58.4%
viability, T/C [32]: 53.8%
viability, T/C [13]: 53.5%
viability, T/C [14]: 47.9%
viability, T/C [15]: 45.8%
viability, T/C [16]: 48.5%
viability, T/C [33]: 34.8%
viability, T/C [34]: 36%
viability, T/C [17]: 31.1%
viability, T/C [18]: 32.3%
viability, T/C [19]: 27.6%
viability, T/C [20]: 29.4%
viability, T/C [35]: 22%
viability, T/C [36]: 21.5%
viability, T/C [21]: 22.7%
viability, T/C [22]: 18.8%
viability, T/C [23]: 18.4%
viability, T/C [24]: 24.7%

Cn1ncnc1[C@H]1c2n[nH]c(=O)c3cc(F)cc(c23)N[C@@H]1c1ccc(F)cc1 + CC(Nc1ccc2c(c1)OCCn1cc(N3C(=O)OCC3C(F)F)nc1-2)C(N)=O
IC50 (second compound 0.00316 µM): > 100 nM
IC50 (second compound 0.01 µM): > 100 nM
IC50 (second compound 0.0316 µM): > 100 nM
IC50 (second compound 0.1 µM): > 100 nM
IC50 (second compound 0.316 µM): < 0.316 nM
IC50 (second compound 1 µM): < 0.316 nM
viability, T/C (second compound 0.00316 µM, first compound 0.000316 µM): 99.8%
viability, T/C (second compound 0.00316 µM, first compound 0.001 µM): 104%
viability, T/C [25]: 105%
viability, T/C [26]: 100%
viability, T/C [1]: 98.9%
viability, T/C [2]: 91.7%
viability, T/C (second compound 0.01 µM, first compound 0.000316 µM): 103%
viability, T/C (second compound 0.01 µM, first compound 0.001 µM): 106%
viability, T/C [27]: 88.1%
viability, T/C [28]: 94.2%
viability, T/C [5]: 95%
viability, T/C [6]: 86.2%
viability, T/C (second compound 0.0316 µM, first compound 0.000316 µM): 80%
viability, T/C (second compound 0.0316 µM, first compound 0.001 µM): 79%
viability, T/C [29]: 77.5%
viability, T/C [30]: 79.9%
viability, T/C [9]: 80.2%
viability, T/C [10]: 74.2%
viability, T/C (second compound 0.1 µM, first compound 0.000316 µM): 58.8%
viability, T/C (second compound 0.1 µM, first compound 0.001 µM): 56%
viability, T/C [31]: 60.4%
viability, T/C [32]: 57.9%
viability, T/C [13]: 54.8%
viability, T/C [14]: 50.8%
viability, T/C (second compound 0.316 µM, first compound 0.000316 µM): 34.3%
viability, T/C (second compound 0.316 µM, first compound 0.001 µM): 35.9%
viability, T/C [33]: 35.3%
viability, T/C [34]: 33.9%
viability, T/C [17]: 34%
viability, T/C [18]: 33%
viability, T/C (second compound 1 µM, first compound 0.000316 µM): 23.3%
viability, T/C (second compound 1 µM, first compound 0.001 µM): 23.3%
viability, T/C [35]: 22.2%
viability, T/C [36]: 23.7%
viability, T/C [21]: 23%
viability, T/C [22]: 24.4%
